What was measured:
[1] = test system: TNFα; assay: Cot Monocyte TNFα Cell Based Assay; settings: Homo sapiens, Monocyte, read-out: EC50 TNF, LPS-stimulated human monocytes, TNFα
[2] = biological target: Human Cot (Homo sapiens (Human), UniProt P41279); assay: High Throughput Cot Biochemical Assay; settings: IC50 HTRF, Cot HTRF (TR-FRET) biochemical assay
Chain of Human Cot (P41279 30-397): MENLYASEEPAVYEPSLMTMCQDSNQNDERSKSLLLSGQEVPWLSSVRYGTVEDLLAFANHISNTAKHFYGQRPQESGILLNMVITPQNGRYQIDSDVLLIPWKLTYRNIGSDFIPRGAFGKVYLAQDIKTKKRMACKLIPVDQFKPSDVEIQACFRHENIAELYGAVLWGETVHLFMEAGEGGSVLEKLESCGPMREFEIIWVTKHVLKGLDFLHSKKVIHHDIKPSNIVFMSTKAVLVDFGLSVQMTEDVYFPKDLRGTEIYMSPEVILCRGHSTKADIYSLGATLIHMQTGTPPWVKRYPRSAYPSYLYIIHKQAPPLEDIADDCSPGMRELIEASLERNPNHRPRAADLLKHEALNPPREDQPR

CC(C)n1cc([C@@H](Nc2cc(Cl)c3ncc(C#N)c(Nc4ccc(F)c(Cl)c4)c3c2)c2csc3c2CCNC3)nn1 [Example 346, (S)-8-chloro-4-((3-chloro-4-fluorophenyl)amino)-6-(((1-isopropyl-1H-1,2,3-triazol-4-yl)(4,5,6,7-tetrahydrothieno[2,3-c]pyridin-3-yl)methyl)amino)quinoline-3-carbonitrile]
EC50 [1]: 208 nM
IC50 [2]: 3 nM

[2H]C([2H])([2H])C([2H])([2H])[C@H](Nc1c(C#N)cnc2c(Cl)cc(N[C@@]([2H])(c3ccc(F)nc3)c3cn(C4CC4)nn3)cc12)c1ccccc1 [Example 107, 8-chloro-6-(((S)-(1-cyclopropyl-1H-1,2,3-triazol-4-yl)(6-fluoropyridin-3-yl)methyl-d)amino)-4-(((S)-1-phenyl-propyl-2,2,3,3,3-d5)amino)quinoline-3-carbonitrile]
EC50 [1]: > 10000 nM
IC50 [2]: 182 nM

[2H][C@@](Nc1cc(Cl)c2ncc(C#N)c(N[C@H](CC)c3ccccc3)c2c1)(c1cn(C2CC2)nn1)c1cccnc1F [Example 105, 8-chloro-6-(((S)-(1-cyclopropyl-1H-1,2,3-triazol-4-yl)(2-fluoropyridin-3-yl)methyl-d)amino)-4-(((R)-1-phenylpropyl)amino)quinoline-3-carbonitrile]
EC50 [1]: 144 nM
IC50 [2]: 3 nM

Cc1nc(F)ccc1[C@H](Nc1cc(Cl)c2ncc(C#N)c(N[C@@H]3CCOCC3(C)C)c2c1)c1cn(C2(C(F)F)CC2)nn1 [Example 539, 8-chloro-6-(((S)-(1-(1-(difluoromethyl)-cyclopropyl)-1H-1,2,3-triazol-4-yl)(6-fluoro-2-methylpyridin-3-yl)methyl)-amino)-4-(((R)-3,3-dimethyltetrahydro-2H-pyran-4-yl)amino)quinoline-3-carbonitrile]
EC50 [1]: 12 nM
IC50 [2]: 1 nM

Cc1nc(F)ccc1[C@H](Nc1cc(Cl)c2ncc(C#N)c(NCC3(C(F)(F)F)CCC3)c2c1)c1cn(C2(C(F)F)CC2)nn1 [Example 731, (S)-8-chloro-6-(((1-(1-(difluoromethyl)cyclopropyl)-1H-1,2,3-triazol-4-yl)(6-fluoro-2-methylpyridin-3-yl)methyl)amino)-4-(((1-(trifluoromethyl)cyclobutyl)-methyl)amino)quinoline-3-carbonitrile]
EC50 [1]: 179 nM
IC50 [2]: 11 nM

Cc1nc(F)ccc1[C@H](Nc1cc(Cl)c2ncc(C#N)c(NCC(C)(C)C)c2c1)c1cn(C(C)(C)C(F)(F)F)nn1 [Example 541, (S)-8-chloro-6-(((6-fluoro-2-methyl-pyridin-3-yl)(1-(1,1,1-trifluoro-2-methylpropan-2-yl)-1H-1,2,3-triazol-4-yl)methyl)amino)-4-(neopentylamino)-quinoline-3-carbonitrile]
EC50 [1]: 180 nM
IC50 [2]: 6 nM

Cn1ccc2c([C@H](Nc3cc(Cl)c4ncc(C#N)c(NCC(C)(C)C)c4c3)c3cn(C4CCN(C(C)(C)C)CC4)nn3)cccc2c1=O [Example 714, (S)-6-(((1-(1-(tert-butyl)piperidin-4-yl)-1H-1,2,3-triazol-4-yl)(2-methyl-1-oxo-1,2-dihydroisoquinolin-5-yl)methyl)amino)-8-chloro-4-(neopentylamino)quinoline-3-carbonitrile]
EC50 [1]: 57 nM
IC50 [2]: 6 nM

N#Cc1cnc2c(Cl)cc(N[C@@H](c3cccnc3)c3c[nH]nn3)cc2c1Nc1ccc(F)c(Cl)c1 [Example 308, (S)-8-chloro-4-((3-chloro-4-fluorophenyl)amino)-6-((pyridin-3-yl(1H-1,2,3-triazol-4-yl)methyl)amino)-quinoline-3-carbonitrile]
EC50 [1]: 286 nM
IC50 [2]: 4 nM

Cc1nc(F)ccc1[C@H](Nc1cc(C#N)c2ncc(C#N)c(NCC(C)(C)C)c2c1)c1cn([C@@H](C)CF)nn1 [Example 623, 6-(((S)-(6-fluoro-2-methylpyridin-3-yl)(1-((S)-1-fluoropropan-2-yl)-1H-1,2,3-triazol-4-yl)methyl)amino)-4-(neopentylamino)quinoline-3,8-dicarbonitrile]
EC50 [1]: 27 nM
IC50 [2]: 1 nM

— patent publication US11066414B2, “Cot modulators and methods of use thereof” (Gilead Sciences, Inc., priority 2015, dated 2021)
